Like-named read-outs stand apart in the source and are kept apart here.
Assays:
EHEC = format: cell-based, enterohemorrhagic Escherichia coli (EHEC) O157:H7
S. Typhimurium = format: cell-based, Salmonella enterica serovar Typhimurium; conditions: J774 macrophages, 5 nM
[1] = test system: S. Typhimurium strain SL1344; set-up: species or system mice (BALB/c); conditions: mouse, in vivo
EAEC O104:H4 [2] = format: cell-based, enteroaggregative E. coli (EAEC); conditions: EAEC O104:H4, 5 nM, 24 h
UPEC = format: cell-based, uropathogenic E. coli (UPEC); conditions: for reduction of biofilm formation: 24 h
[3] = test system: Pseudomonas and Klebsiella isolates; format: cell-based
EAEC O104:H4 [4] = format: cell-based, enteroaggregative E. coli (EAEC)
[5] = 5, 20, and 80 mg/kg daily for 14 days
QseC = conditions: cited from earlier work
in vivo = conditions: female, CD-1, mouse
hERG channel = hERG channel (Homo sapiens, UniProt Q12809); assay: in vitro
[6] = mouse, in vivo; cited from earlier work

Sequence of hERG channel (Q12809 whole entry): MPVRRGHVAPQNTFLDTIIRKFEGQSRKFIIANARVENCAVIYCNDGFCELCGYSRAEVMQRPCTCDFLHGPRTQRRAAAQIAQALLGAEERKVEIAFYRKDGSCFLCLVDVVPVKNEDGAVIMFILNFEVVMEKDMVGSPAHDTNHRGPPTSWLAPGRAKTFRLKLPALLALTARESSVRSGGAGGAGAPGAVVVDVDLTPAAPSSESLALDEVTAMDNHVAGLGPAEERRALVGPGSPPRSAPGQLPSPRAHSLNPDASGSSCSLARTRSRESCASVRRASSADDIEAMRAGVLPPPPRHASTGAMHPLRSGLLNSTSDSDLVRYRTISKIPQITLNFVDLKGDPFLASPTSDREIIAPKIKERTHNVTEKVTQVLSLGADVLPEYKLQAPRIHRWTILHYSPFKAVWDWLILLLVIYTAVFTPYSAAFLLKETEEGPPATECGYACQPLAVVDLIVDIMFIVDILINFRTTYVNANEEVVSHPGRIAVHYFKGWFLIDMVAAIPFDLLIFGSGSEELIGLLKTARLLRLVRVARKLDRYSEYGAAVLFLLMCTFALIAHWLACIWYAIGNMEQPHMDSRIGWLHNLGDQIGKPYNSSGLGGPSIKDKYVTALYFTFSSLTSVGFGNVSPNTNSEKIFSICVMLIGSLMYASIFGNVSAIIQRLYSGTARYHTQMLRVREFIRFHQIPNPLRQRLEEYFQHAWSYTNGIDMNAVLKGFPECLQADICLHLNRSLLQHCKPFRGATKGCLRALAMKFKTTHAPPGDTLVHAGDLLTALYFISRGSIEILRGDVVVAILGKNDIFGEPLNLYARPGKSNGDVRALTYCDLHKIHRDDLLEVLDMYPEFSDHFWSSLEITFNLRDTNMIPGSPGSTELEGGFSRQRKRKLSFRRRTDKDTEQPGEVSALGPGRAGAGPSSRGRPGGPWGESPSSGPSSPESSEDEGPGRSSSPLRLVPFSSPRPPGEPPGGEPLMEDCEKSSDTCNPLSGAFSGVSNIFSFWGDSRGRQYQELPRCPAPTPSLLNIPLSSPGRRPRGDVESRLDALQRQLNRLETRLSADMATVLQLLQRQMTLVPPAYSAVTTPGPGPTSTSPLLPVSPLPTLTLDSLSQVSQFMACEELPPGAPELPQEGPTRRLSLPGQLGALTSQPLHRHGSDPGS

## O=C(Nc1ccccc1)Nc1ccc(NS(=O)(=O)c2ccccc2)cc1 [CF252, N-(4-(3-Phenylureido)phenyl)benzenesulfonamide]
EHEC
  expression of ler and stx2a: reversed the antagonist behavior

## O=C(Nc1ccccc1)Nc1ccc(S(=O)(=O)NC2CCCCC2)cc1 [CF283, N-Cyclohexyl-4-(3-phenylureido)benzenesulfonamide]
EHEC
  expression of ler and stx2a: significantly reduced

## COc1ccccc1NC(=O)Nc1ccc(S(=O)(=O)Nc2ccccc2)cc1 [CF287, 4-(3-(2-Methoxyphenyl)ureido)-N-phenylbenzenesulfonamide]
EHEC
  expression of ler and stx2a: lost the antagonist activity

## O=C(Nc1ccc(S(=O)(=O)Nc2ccccc2)cc1)Nc1nncs1 [CF290, 4-(3-(1,3,4-Thiadiazol-2-yl)ureido)-N-phenylbenzenesulfonamide]
EHEC
  increase of ler: 2 fold

## O=S(=O)(Nc1ccccc1)c1ccc(NC(=S)Nc2ccccc2)cc1 [LED209, N-phenyl-4-(3-phenylthioureido)benzenesulfonamide]
EHEC
  expression of key virulence genes (ler, tir, stx2a): phenocopied a qseC mutation
  expression of ler and stx2a: works as well as all of our previous LED209 batches
  expression of the virulence genes (LEE: ler, tir): nonresponsive
  expression of the virulence genes (ler): did not respond
S. Typhimurium
  decrease of survival of S. Typhimurium within macrophages: 4 logs
[1]
  mice remained alive: 43%
[1]; 20 mg/kg
  mice remained alive: 60%
[1]; po, 20 mg/kg
  mice survived: 50%
EAEC O104:H4 [2]
  reduction of biofilm formation: 37%
UPEC; UPEC clinical isolate 6
  reduction in biofilm formation: 43%
UPEC; UPEC clinical isolate 8
  reduction in biofilm formation: 48%
UPEC; UPEC clinical isolate 25
  reduction in biofilm formation: 43%
UPEC; UPEC strain CFT073, 5 nM, not significant
  reduction of biofilm formation: 8%
UPEC; UPEC strain UTI89, 5 nM
  reduction of biofilm formation: 35%
[3]; clinical isolate 18
  reduction of biofilm formation: 26%
[3]; clinical isolate 20
  reduction of biofilm formation: 21%
EAEC O104:H4 [4]
  expression of stx2a: significantly reduced
20 mg/kg
  penetration of the blood-brain barrier: limited
At each oral dose
  peak concentrations in plasma: high
Oral doses above 80 mg/kg
  exposures versus dose: increased less than proportionally
Oral gavage, mice
  oral bioavailability: good
  pharmacokinetics by the oral route: nonlinear
[5]
  liver toxicity: no liver toxicity
  toxicity: did not present any toxicity
QseC
  QseC binding to its signals and autophosphorylation: preventing binding to its signals and consequently its autophosphorylation
In vivo
  half-life: 0.667 to 1.67 h
hERG channel
  inhibition at 10 µM: 4%
[6]
  pharmacokinetics via the intravenous route: linear

Source: publication PMC4235214 (mBio, 2014)
